Here are results for four compounds from publication PMC3359160, “Dipeptidyl peptidase IV, aminopeptidase N and DPIV/APN-like proteases in cerebral ischemia” (Journal of Neuroinflammation, 2012).

Assay [1] deals with eMCAO-induced infarct volume. In words: Effect of protease inhibitors on infarct volumes after eMCAO (transient focal cerebral ischemia). It counts as in vivo, male Sprague-Dawley rats. Conditions: rat, icv f.c. 10 μM; for effect on eMCAO-induced infarct volumes in ipsilateral cortices / effect on striatal lesion sizes: 7 days post eMCAO; for reduction of eMCAO-induced infarct volume in ipsilateral cortex compared to vehicle: mean ± S.E.M. As to the method: Studies were performed on male Sprague-Dawley rats (250-280 g) obtained from Harlan Winkelmann (Borchen, Germany). Animals were maintained under constant environmental conditions with an ambient temperature of 21 ± 2°C and relative humidity of 40%. They were housed with a 12-h light-dark cycle, food and water were given ad libitum. […] Animals were anesthetized with halothane in a mixture of nitrous oxide/oxygen (70:30) and maintained with 2-3% halothane during the following procedures: rats were placed in a Kopf stereotaxic frame and further anesthetized via a nose cone. For the induction of eMCAO, a burr hole (1 mm diameter) was drilled into the skull (coordinates: anterior 0.50 mm from bregma, lateral 5.2 mm to […]). After careful opening of the dura, a 29-gauge cannula was lowered 7.5 mm below the dura according to the rat brain atlas of Paxinos and Watson. […] After further 5 min, the cannula was slowly withdrawn. Throughout the operation procedure, rats were kept at 37 ± 0.5°C using a thermostatically controlled heating blanket attached to a rectal thermometer. The animals were then placed under a heating lamp to maintain normothermia until recovery. In order to perform the icv application of different protease inhibitors under halothane anesthesia, a second burr hole was drilled into the skull (coordinates: posterior 0.80 mm from bregma, lateral 1.5 mm to […]). Then, a 29-gauge cannula was lowered 4.5 mm below the dura. The icv injection of IPC1755 (2 μl of a 10 mmol/l PBS/DMSO solution, pH 7.4, f.c. 10 μM) was performed according to one of the following time schedules; […] According to legal requirements of the German animal law, animals were kept under anesthesia during each drug injection. Control rats were treated in the same way, except that the corresponding vehicle solution instead of the drug was injected. Thus, potential protective effects of halothane can be excluded. Rats were maintained at 37 ± 0.5°C throughout the operation procedures. In parallel, the body temperature was monitored using a rectal temperature sensor. Subsequently, the animals were placed into an incubator to maintain normothermia until recovery from anesthesia and then returned into their home cage. After a survival time of 7 days after eMCAO, animals were anesthetized by intraperitonial injection of pentobarbital and transcardially perfusion-fixed with saline followed by 4% paraformaldehyde in 0.1 M PBS (pH 7.4). Brains were then removed carefully, post-fixed in the same fixative for 2 h, and placed in a rodent brain matrix (rat, ASI Instruments, Warren, MI, USA). 1-mm coronal brain slices were cut with a razor blade at 14 predetermined anterior-posterior levels. After cryoprotection in 30% sucrose, slices were rapidly frozen in isopentane and stored at -80°C. Four to five cryostat sections (30 μm) from each brain slice were cut in a cryo microtome and stained with toluidine blue. The extent of cortical and striatal damage following ischemic injury was documented with microphotographic images from Nissl-stained slices showing the anterior-posterior level according to the brain atlas of Paxinos and Watson. The volumes of cortical and striatal infarct lesions were measured at eight predetermined anterior-posterior levels by an operator blinded to the group composition. Three-dimensional lesion sizes were calculated by integration of two-dimensional lesion sizes at each stereotactic level and the distances between the various levels. Image analysis was performed with an Eclipse TE 3000 microscope (Nikon, Düsseldorf, Germany), equipped with a 4x objective, and the Lucia software package (Version 4.2.1., Nikon). Data were statistically analyzed by non-paired Student's t-test and given as mean ± S.E.M.

Another assay relates to mononuclear cells. Also noted: method as in Patent EP09169269. To be noted: ref Patent EP09169269; read-out: IC50, proliferation of mononuclear cells; cited from earlier work.
The subject of the next assay is APN. Also noted: method as in Patent EP09169269. To be noted: ref Patent EP09169269; cited from earlier work.
A further assay relates to DPIV. Also noted: method as in Patent EP09169269. To be noted: ref Patent EP09169269; cited from earlier work.
The subject of another assay is cAAP. Also on record: method as in Patent EP09169269. Conditions: ref Patent EP09169269; cited from earlier work.
Another assay deals with T cells. Also noted: method as in Patent EP09169269. Conditions: ref Patent EP09169269; read-out: IC50, proliferation of T cells; cited from earlier work.
Another assay concerns DP8/9. Also on record: method as in Patent EP09169269. Conditions: ref Patent EP09169269; cited from earlier work.
The next assay concerns DPII. Also on record: method as in Patent EP09169269. To be noted: ref Patent EP09169269; cited from earlier work.
[2] abbreviates: in parallel to eMCAO and 6 h and 24 h post insult.
The mark [3] stands for this setting: in parallel to eMCAO and 6 h and 24 h post insult, analyzed 7 days post eMCAO.

Take `NCC[C@H](N)C(=O)N1CCCCC1` [selective DPII inhibitor, L-2,4-Diaminobutyrylpiperidinamide]: in assay [1] (setting [2]), the “effect on eMCAO-induced infarct volumes in ipsilateral cortices” value is given as “did not decrease” and the “effect on striatal lesion sizes” value is “neither sitagliptin nor selective DPII or DP8/9 inhibition affected”.
Taken in the same sequence, the figures for `CC[C@@H](C)[C@H](N)C(=O)N1Cc2ccccc2C1.Cl` [selective DP8/9 inhibitor, (2S,3R)-2-(2-amino-3-methyl-1-oxopentan-1-yl)-1,3-dihydro-2H-isoindole hydrochloride] were “did not decrease” and “neither sitagliptin nor selective DPII or DP8/9 inhibition affected”.
With `CCCCCCCCCCCCCCCC(=O)OC(C(=O)NCC(C)(C)CNC(=O)CC(N)Cc1cc(F)ccc1F)C(N)Cc1ccccc1` (stereo not shown) [IPC1755], the IC50 is 36 µM in the assay with mononuclear cells; 0.03 µM in the assay on APN; 0.06 µM in the assay with DPIV; 0.02 µM in the assay on cAAP; 34 µM in the assay with T cells; 85 µM with DP8/9. In addition, in the assay on DPII, the IC50 was 166 µM. Also, in assay [1] (all three time schedules (Figure 7C columns b-d)), the “effect on striatal lesion sizes” value is on record as “did not affect striatal lesion sizes”. Further, the “cortical lesion size, % of control damage of vehicle-treated animals” value in assay [1] (exclusively 6 and 24 h post eMCAO, analyzed 7 days post eMCAO) is recorded as 107.5 ± 12.8%. Moreover, in assay [1] (setting [3]), the “reduction of eMCAO-induced infarct volume in ipsilateral cortex compared to vehicle” value was determined as 48.8 ± 7.9%.
Consider `N[C@@H](CC(=O)N1CCn2c(nnc2C(F)(F)F)C1)Cc1cc(F)c(F)cc1F` [sitagliptin, (R)-3-Amino-1-[3-(trifluormethyl)-5,6,7,8-tetrahydro[1,2, 4]triazol[4,3-a]pyrazin-7-yl]-4-(2,4,5-trifluorphenyl)butan-1-on], for which the “effect on striatal lesion sizes” value in assay [1] (setting [2]) was “neither sitagliptin nor selective DPII or DP8/9 inhibition affected”. Further, in assay [1] (setting [3]), the “reduction of eMCAO-induced infarct volume in ipsilateral cortex compared to vehicle” value is recorded as 21.1 ± 5.8%.
